Numbered stars: 1 amine (or outer) side, 2 acyl side, 3 side chain; on linkers, the order of the positions; unused ones are H or OH. Square brackets hold non-standard residues; d marks the D form. Side chains are listed from the residue outwards. Peptide text beside a SMILES is read from it. * marks the point of attachment. C18 diacid = O=C(O)CCCCCCCCCCCCCCCCC(=O)*; γGlu = O=C(O)[C@H](CCC(=O)[*:2])N[*:1]; AEEA = NCCOCCOCC(=O)O; Aib = CC(C)(N)C(=O)O
Assays:
[1] = Thioflavin T (ThT) fibrillation assay for physical stability; assay type: physicochemical; conditions: 250 μM in 10 mM HEPES buffer, pH 7.5, 37° C., shaking 960 rpm
Summary of the method: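 Fibrillation was followed by ThT (1 μM) fluorescence every 20 min, 444/485 nm, for 250 μM peptide in 10 mM HEPES pH 7.5 shaken at 960 rpm, 37° C. Lag time (t0−2τ) and apparent rate constant (1/τ) come from a sigmoidal fit. Recovery is % of initial concentration remaining soluble after centrifugation and filtration (RP-HPLC).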

[2] = Chemical stability assessment by RP-UPLC; assay type: physicochemical; conditions: 333 μM, 8 mM phosphate buffer pH 7.3, 37° C. vs 5° C.
Summary of the method: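 Purity loss = (purity after 14 days at 5° C. minus that at 37° C.) relative to the 5° C. value, purity being main-peak area % by RP-UPLC with UV at 215 nm. Samples were 333 μM in 8 mM phosphate, pH 7.3; gradient adjusted for outlying retention times.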

Q: With `CC(C)C[C@H](NC(=O)[C@H](Cc1ccc(O)cc1)NC(=O)[C@H](CCCCN)NC(=O)[C@H](CO)NC(=O)[C@H](CC(C)C)NC(=O)[C@H](CC(=O)O)NC(=O)[C@H](CO)NC(=O)[C@@H](NC(=O)[C@H](Cc1ccccc1)NC(=O)[C@@H](NC(=O)CNC(=O)[C@H](CCC(N)=O)NC(=O)C(C)(C)NC(=O)[C@@H](N)Cc1c[nH]cn1)[C@@H](C)O)[C@@H](C)O)C(=O)N[C@@H](CC(=O)O)C(=O)N[C@@H](C)C(=O)N[C@@H](CCCNC(=N)N)C(=O)N[C@@H](CCCNC(=N)N)C(=O)N[C@@H](C)C(=O)N[C@@H](CCCNC(=N)N)C(=O)N[C@@H](CCC(=O)O)C(=O)N[C@@H](Cc1ccccc1)C(=O)N[C@H](C(=O)N[C@@H](CCC(N)=O)C(=O)N[C@@H](Cc1c[nH]c2ccccc12)C(=O)N[C@@H](CC(C)C)C(=O)N[C@@H](CC(C)C)C(=O)N[C@@H](CCCCNC(=O)CC[C@H](NC(=O)CC[C@H](NC(=O)COCCOCCNC(=O)COCCOCCNC(=O)CC[C@H](NC(=O)CCCCCCCCCCCCCCCCC(=O)O)C(=O)O)C(=O)O)C(=O)O)C(=O)N[C@H](C(N)=O)[C@@H](C)O)C(C)C` [Example 43, N^ε28-[(4S)-4-carboxy-4-[[(4S)-4-carboxy-4-[[2-[2-[2-[[2-[2-[2-[[(4S)-4-carboxy-4-(17-carboxyheptadecanoylamino)butanoyl]amino]ethoxy]ethoxy]acetyl]amino]ethoxy]ethoxy]acetyl]amino]butanoyl]amino]butanoyl]-[Aib2,Leu10,Ala16,Arg20,Glu21,Leu27,Lys28]-Glucagon amide] (H-H[Aib]QGTFTSDLSKYLDARRAREFVQWLLK([γGlu-γGlu-AEEA-AEEA-γGlu-C18 diacid])T-NH2; N-terminus assumed) as the compound, how does the THT assay Lag time (Ex. 76) [1] read?
A: 45 h

Q: And the “Purity loss; 14 days at 37° C.” value [2]?
A: 2%

Reference: US9474790B2, “Stable, protracted GLP-1/glucagon receptor co-agonists for medical use” (Novo Nordisk A/S, priority 2013, dated 2016)
